Source: PubChem BioAssay AID463203 (Broad Institute, 2010)
Active and inactive are the calls of the source.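 How the source made its calls: active means more than half of replicate measurements showing over 20% loss of kinase signal relative to plate controls; inconclusive means some but at most half of replicates over 20% loss; inactive means no replicate over 20% signal loss.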

Target: Glycogen synthase kinase-3 alpha (Homo sapiens) (UniProt P49840)
Experiment: concentration-response blocking of human GSK3A – biochemical, luminescence, cell-free homogeneous, retest, dose response (AID 463203)
Conditions: GSK-3 alpha enzyme, ADP-Glo luminescence, 60 min

Chain of Glycogen synthase kinase-3 alpha (Homo sapiens) (P49840 whole entry, looked up): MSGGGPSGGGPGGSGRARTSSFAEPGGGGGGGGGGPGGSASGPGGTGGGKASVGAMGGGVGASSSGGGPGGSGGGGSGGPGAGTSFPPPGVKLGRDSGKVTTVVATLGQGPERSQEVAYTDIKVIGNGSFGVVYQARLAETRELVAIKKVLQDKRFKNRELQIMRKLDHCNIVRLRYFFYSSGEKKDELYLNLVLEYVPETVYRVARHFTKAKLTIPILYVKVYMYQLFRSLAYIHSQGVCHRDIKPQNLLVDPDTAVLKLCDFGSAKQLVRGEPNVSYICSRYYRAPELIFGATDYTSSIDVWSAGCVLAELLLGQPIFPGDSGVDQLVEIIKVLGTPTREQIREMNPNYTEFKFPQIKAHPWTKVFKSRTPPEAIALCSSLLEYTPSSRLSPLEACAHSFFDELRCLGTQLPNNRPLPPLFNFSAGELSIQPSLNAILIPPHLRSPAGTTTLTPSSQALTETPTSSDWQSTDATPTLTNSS

SMILES	AC50
COC(=O)c1ccc2c(=O)[nH]c(COC(=O)c3cccc(S(=O)(=O)N4CCOCC4)c3)nc2c1	6.88 µM
N#CC1=C2SCN(Cc3ccccc3)CN2C(=O)CC1c1ccccc1F (stereo unspecified)	> 30 µM (inactive)
COC(=O)c1c(NC(=O)Cc2cccs2)sc2c1CCCC2	> 30 µM (inactive)
CC(=O)Nc1ccc(CC#N)cc1	> 30 µM (inactive)
COc1ccc(OCC(=O)NCCCn2ccnc2)cc1	> 30 µM (inactive)
c1ccc2c3c([nH]c2c1)-c1[nH]ncc1CC3	25.1 µM
CCn1c2ccccc2c2nc3ccccc3nc21	> 30 µM (inactive)
COC(=O)c1c(C(C)=O)cnc2ccc(Br)cc12	> 30 µM (inactive)
O=C(CSc1ncccc1-c1nc2ccccc2[nH]1)NCc1ccco1	> 30 µM (inactive)
COc1ccc(N2CCOCC2)c(NC(=O)c2ccc(Br)o2)c1	8.71 µM
COc1cccc(/C=c2\s/c(=C\C(=O)C(C)(C)C)[nH]c2=O)c1	> 30 µM (inactive)
COc1ccc(OC)c(/C=C2\Oc3cc(OCC(=O)N4CC(O)C[C@H]4C(=O)O)ccc3C2=O)c1 (stereo partly specified)	> 30 µM (inactive)
O=C(c1ccc2c3n(nc2c1)-c1ccc(Cl)cc1CO3)N1CCCCC1	> 30 µM (inactive)
COc1cccc(-c2nc(-c3ccccc3)[nH]c(=O)c2C#N)c1	> 30 µM (inactive)
Cc1sc2ncnc(SCC(=O)NCC3CCCO3)c2c1C (stereo unspecified)	> 30 µM (inactive)
COc1ccccc1C(CNc1ccc(S(=O)(=O)N2CCCC2)cc1[N+](=O)[O-])N(C)C (stereo unspecified)	> 30 µM (inactive)
Cc1nc(NC(=O)c2ccccc2)sc1Cc1ccc2c(c1)OCO2	> 30 µM (inactive)
O=C(CSc1nnc(SCc2ccc(Cl)cc2)s1)N/N=C/c1ccccc1C(=O)O	> 30 µM (inactive)
CCOc1ccc(Nc2nc(NCc3ccco3)nc(N)c2[N+](=O)[O-])cc1	> 30 µM (inactive)
O=c1[nH]nnc2c1sc1nc(N3CCOCC3)c3c(c12)CCCC3	13.4 µM
O=C(Nc1ccsc1C(=O)O)c1ccccc1	> 30 µM (inactive)
COc1ccc(/C=N/NC(=O)c2nnn(-c3nonc3N)c2-c2cccs2)c(OC)c1	1.04 µM
CC1(C)CC(=O)C(C2c3ccccc3Oc3ccccc32)C(=O)C1	> 30 µM (inactive)
CCC(=O)N1CCN(c2cc(NCC3CCCO3)c(F)cc2[N+](=O)[O-])CC1 (stereo unspecified)	21.7 µM
O=C1/C(=C/c2ccc3c(c2)OCO3)Oc2cc(OCC(=O)N3CCC[C@H]3C(=O)O)ccc21	4.35 µM
CCCc1cc(=O)[nH]c(SCC(=O)Nc2sc3c(c2C(N)=O)CCCC3)n1	> 30 µM (inactive)

SMILES	AC50
CN(C)c1ccc(/C=N/NC(=O)c2ccc(Cl)cc2)cc1	> 30 µM (inactive)
CCN1C(=O)/C(=C2\SC(=S)N(c3c(C)n(C)n(-c4ccccc4)c3=O)C2=O)c2ccccc21	> 30 µM (inactive)
Brc1ccc(C2=Nn3c(nnc3-c3cccnc3)SC2)s1	> 30 µM (inactive)
CSc1ccc(-c2cc(=O)c3ccccc3o2)cc1	> 30 µM (inactive)
Cc1nc(SCC(=O)Nc2nc3ccccc3s2)n[nH]1	> 30 µM (inactive)
CCOc1ccc(Nc2nc(N)c3ccccc3n2)cc1	31.2 µM
O=C(c1coc2ccc(O)c(CN3CCOCC3)c12)C1CC1	22.8 µM
CCOC(=O)/C(C#N)=C1/SC(CCO)C(=O)N1c1ccccc1 (stereo unspecified)	13.1 µM
CCOC(=O)CN1CC23C=CC(O2)C(C(=O)O)C3C1=O (stereo unspecified)	> 30 µM (inactive)
COc1ccc(C(=O)Nc2nncs2)cc1S(=O)(=O)N1CC(c2ccccc2)CC1=O (stereo unspecified)	> 30 µM (inactive)
O=C(Nc1c(C(=O)O)oc2ccc(Br)cc12)c1ccccc1	3.44 µM
COC(=O)C1=C(C)Nc2ncnn2C1c1ccccn1 (stereo unspecified)	> 30 µM (inactive)
O=[N+]([O-])c1cc(S(=O)(=O)c2ccc(N3CCCCC3)c([N+](=O)[O-])c2)ccc1N1CCCCC1	> 30 µM (inactive)
Cc1nc2c(ccc3c2ccc2nc(C)sc23)s1	> 30 µM (inactive)
O=C(CSc1ccc2nnc(-c3ccccn3)n2n1)N1CCN(c2ccccc2)CC1	> 30 µM (inactive)
Fc1ccc(Nc2nc(-c3ccncc3)nc3ccccc23)cc1F	> 30 µM (inactive)
N#C/C(=N\Nc1ccc(Cl)cc1)C(N)=S	> 30 µM (inactive)
CCOC(=O)c1sc(NC(=O)CN2C(=O)NC3(CCC(C)CC3)C2=O)c(C(=O)OCC)c1C (stereo unspecified)	> 30 µM (inactive)
N#CC(C#N)=C1CCc2ccccc2N1	> 30 µM (inactive)
CN(C)CCCNc1ccc(S(N)(=O)=O)cc1[N+](=O)[O-]	> 30 µM (inactive)
NC(=O)c1sc2nc3c(c(-c4ccco4)c2c1N)CCCC3	13.6 µM
COc1ccc(CC(=O)NCCc2cnc[nH]2)cc1	> 30 µM (inactive)
CCc1ccc(NC(=S)NC(=O)CC(C)C)cc1	> 30 µM (inactive)
Cc1cc(NC(=O)c2cccc(S(=O)(=O)N3CC(c4ccccc4)CC3=O)c2)no1 (stereo unspecified)	> 30 µM (inactive)
S=C(Nc1cccc(Cl)c1)Nc1cccc2cnccc12	> 30 µM (inactive)
Fc1ccccc1/C=N/Nc1ncnc2ccccc12	> 30 µM (inactive)

SMILES	AC50
C=CCn1cnc2c(c1=O)c1nc3ccccc3nc1n2/N=C/c1cc(OC)c(OC)c(OC)c1	> 30 µM (inactive)
O=C(Nc1ncc([N+](=O)[O-])s1)C1CC(=O)N(c2ccc(F)cc2)C1 (stereo unspecified)	12.4 µM
O=[N+]([O-])c1ccccc1-c1cc(-c2ccccc2O)n[nH]1	> 30 µM (inactive)
O=C(c1ccc2c3n(nc2c1)-c1ccccc1CO3)N1CCCCC1	26.4 µM
CCCOc1cccc(-c2nnc(N)s2)c1	> 30 µM (inactive)
CCNC(=S)NNC(=O)Cc1ccccc1	> 30 µM (inactive)
N#CC1=C2SCN(c3ccc(F)cc3)CN2C(=O)CC1c1cccc(F)c1 (stereo unspecified)	29.4 µM
NC(=O)c1ccsc1NC(=O)C1CCCCC1	> 30 µM (inactive)
Cc1cc(=O)[nH]c2c(C)cc(S(=O)(=O)Nc3ccc(O)cc3)cc12	> 30 µM (inactive)
Clc1ccc(-c2nnc(SCc3nc(-c4ccccc4)no3)o2)cc1	> 30 µM (inactive)
Cc1ccc(Sc2ccc(NC(=O)CCl)cc2)cc1C	> 30 µM (inactive)
CCCCc1[nH]c(=O)c(C#N)c2c1CCCC2	> 30 µM (inactive)
CC(=NCCO)c1c(O)n(C2CCCCC2)c(=O)[nH]c1=O	26.9 µM
CC1(C)Cc2c(sc3c2C2=NCCN2C=N3)CS1	> 30 µM (inactive)
COc1ccc(CNc2cc(NCCCO)c([N+](=O)[O-])c3nonc23)cc1	13.3 µM
Cc1ccc(C(=O)c2c(NC(=O)CSc3nnc(N)s3)sc3c2CCCC3)cc1	> 30 µM (inactive)
CCOC(=O)c1nnn(-c2nonc2N)c1-c1ccc(Br)cc1	12.4 µM
O=C(O)CCCNc1ccc([N+](=O)[O-])c(NCCCC(=O)O)n1	> 30 µM (inactive)
CN(C)C=NC(=O)/C(C#N)=C/c1ccccc1	> 30 µM (inactive)
Cc1cc(NC(=O)COC(=O)c2cc(S(=O)(=O)N3CCOCC3)ccc2N2CCCCC2)no1	10.1 µM
COc1cc(NC(=O)c2nnn(Cc3ccc(SC)cc3)c2N)cc(OC)c1	13.6 µM
CCCCC(=O)Nc1nn(CC)c2nc3c(C)cccc3cc12	> 30 µM (inactive)
COc1ccc(-c2ncncc2-c2ccc(OC)c(OC)c2)c(O)c1	10.3 µM
O=c1[nH]ncn1-c1ccccc1	> 30 µM (inactive)
